Consider 19 compounds from US7727988B2, “Azabicyclo[3.1.0]hex-3-yl}alkyl)pyrimidinedione” (Glaxo Group Limited, priority 2006, dated 2010).

Counter-ions that a name gives are not always drawn.

The target in the first experiment is T1, dopamine D3 receptor (Homo sapiens, UniProt P35462).
T1 construct: host or cells: Chinese Hamster Ovary (CHO) cells, membranes
T1 sequence (P35462 whole entry, species assumed): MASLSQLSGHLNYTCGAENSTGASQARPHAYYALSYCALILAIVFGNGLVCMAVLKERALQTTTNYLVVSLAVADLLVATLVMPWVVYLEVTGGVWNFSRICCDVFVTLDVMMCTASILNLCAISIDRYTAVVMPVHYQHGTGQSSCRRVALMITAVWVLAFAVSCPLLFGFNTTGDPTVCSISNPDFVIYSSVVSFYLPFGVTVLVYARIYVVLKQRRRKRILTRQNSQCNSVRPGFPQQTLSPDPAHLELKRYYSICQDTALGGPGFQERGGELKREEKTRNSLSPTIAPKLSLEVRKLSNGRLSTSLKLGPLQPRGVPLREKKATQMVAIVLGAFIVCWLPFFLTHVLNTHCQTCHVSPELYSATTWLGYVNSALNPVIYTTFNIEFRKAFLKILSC
The experiment in a line: GTPS scintillation proximity assay (GTPS-SPA), CHO_D3 membranes, antagonist format. In kind it is biochemical.
Conditions: not given
Here is the method: (§1) Functional potency of compounds of this invention can be measured by the following GTPS scintillation proximity assay (GTPS-SPA). Cells used in the study are Chinese Hamster Ovary (CHO) Cells. • Cell Line • CHO_D2 • CHO_D3 • Dopamine CHO D3 (Biocat no 1060) transduced with bacmam G0 G-protein (Biocat no 97886)
(§2) All steps are performed at 4° C. Cell membranes are prepared as follows. Cell pellets are resuspended in 10 volumes of 50 mM HEPES, 1 mM EDTA pH 7.4, using KOH. Cells are homogenised within a glass waring blender for 2 bursts of 15 secs in 200 mls of buffer (50 mM HEPES, 1 mM leupeptin, 25 μg/ml bacitracin, 1 mM EDTA, 1 mM PMSF, 2 μM Pepstatin A). (the latter 2 reagents added as fresh ×100 and ×500 stocks respectively in ethanol). The blender is plunged into ice for 5 mins after the first burst and 10-40 mins after the final burst to allow foam to dissipate. The material is then spun at 500 g for 20 mins and the supernatant spun for 36 mins at 48.000 g. The pellet is resuspended in the same buffer as above but without PMSF and Pepstatin A. The material is then forced through a 0.6 mm needle, made up to the required volume, (usually ×4 the volume of the original cell pellet), aliquoted and stored frozen at −80° C.
(§3) The final top concentration of test drug is 3 μM in the assay and 11 points serial dilution curves 1:4 in 100% DMSO are carried out using a Biomek FX. The test drug at 1% (0.5 ul) total assay volume (TAV) is added to a solid, white Greiner polypropylene 384-well assay plate. 50% TAV (25 μl) of precoupled (for 60 mins at RT) membranes, 5 μg/well, and Wheatgerm Agglutinin Polystyrene Scintillation Proximity Assay beads (RPNQ0260, Amersham), 0.25 mg/well, in 20 mM HEPES (pH 7.4, 100 mM NaCl, 10 mM MgCl2), 60 μg/mL saponin and 30 uM GDP is added. The third addition is a 20% TAV (10 ul) addition of either buffer, (agonist format) or EC80 final assay concentration of agonist, Quinelorane, prepared in assay buffer (antagonist format). The assay is started by the addition of 29% TAV (15 ul) of GTP[35S] 0.38 nM final (37 MBq/mL, 1160 Ci/mmol, Amersham). After all additions assay plates are spun down for 1 min at 1,000 rpm. The final assay cocktail ([…]) is incubated at room temperature to equilibrate for 3-6 hours before reading on a ViewLux™ (613/55 filter) luminescence imager 5 min/plate.
(§4) The effect of the test drug over the basal generates fpKi values of test drug are calculated from the IC50 generated by “antagonist format” experiment, using Cheng & Prusoff equation: fKi=IC50/1+([A]/EC50) where: [A] is the concentration of the agonist Quinelorane in the assay and EC50 is the Quinelorane EC50 value obtained in the same experiment. fpKi is defined as −logfKi. • pKi results are only estimated to be accurate to about 0.3-0.5.
For the compound `Cl.Cl.O=c1[nH]c(=O)n(CCCN2C[C@@H]3C[C@]3(c3ccc(C(F)(F)F)cc3)C2)cc1-c1cccnc1` [Example E27, 5-(3-pyridinyl)-1-(3-{(1S,5R)-1-[4-(trifluoromethyl)phenyl]-3-azabicyclo[3.1.0]hex-3-yl}propyl)-2,4(1H,3H)-pyrimidinedione dihydrochloride], the “Selectivity for D3 over D2 receptors” value is listed as 251 fold.
As to `Cl.O=c1[nH]c(=O)n(CCCN2C[C@@H]3C[C@]3(c3ccc(C(F)(F)F)cc3)C2)cc1-c1ccccc1` [Example E9, 5-phenyl-1-(3-{(1S,5R)-1-[4-(trifluoromethyl)phenyl]-3-azabicyclo-[3.1.0]hex-3-yl}propyl)-2,4(1H,3H)-pyrimidinedione hydrochloride], the “Selectivity for D3 over D2 receptors” value is on record as 199 fold.
The same measure, in the same setting: the result for `Cl.Cl.O=c1[nH]c(=O)n(CCCN2C[C@@H]3C[C@]3(c3ccc(C(F)(F)F)cc3)C2)cc1-c1cc(Cl)cnc1F` [Example E43, 5-(5-chloro-2-fluoro-3-pyridinyl)-1-(3-{(1S,5R)-1-[4-(trifluoromethyl)phenyl]-3-azabicyclo[3.1.0]hex-3-yl}propyl)-2,4(1H,3H)-pyrimidinedione dihydrochloride] reads 100 fold; that for `Cc1cc(-c2cn(CCCCN3C[C@@H]4C[C@]4(c4ccc(C(F)(F)F)cc4)C3)c(=O)[nH]c2=O)ccn1.Cl.Cl` [Example E28, 5-(2-methyl-4-pyridinyl)-1-(4-{(1S,5R)-1-[4-(trifluoromethyl)phenyl]-3-azabicyclo[3.1.0]hex-3-yl}butyl)-2,4(1H,3H)-pyrimidinedione dihydrochloride], 316 fold.
Same read-out and setting: to `Cc1cccc(-c2cn(CCCN3C[C@@H]4C[C@]4(c4ccc(C(F)(F)F)cc4)C3)c(=O)[nH]c2=O)n1.Cl.Cl` [Example E30, 5-(6-methyl-2-pyridinyl)-1-(3-{(1S,5R)-1-[4-(trifluoromethyl)phenyl]-3-azabicyclo[3.1.0]hex-3-yl}propyl)-2,4(1H,3H)-pyrimidinedione dihydrochloride] belongs 199 fold.

In a further experiment the target is T2, dopamine D2 receptor (Homo sapiens, UniProt P14416).
T2 construct: expressed in transfected cells; host or cells: Chinese Hamster Ovary (CHO) cells, membranes
T2 sequence (P14416 whole entry): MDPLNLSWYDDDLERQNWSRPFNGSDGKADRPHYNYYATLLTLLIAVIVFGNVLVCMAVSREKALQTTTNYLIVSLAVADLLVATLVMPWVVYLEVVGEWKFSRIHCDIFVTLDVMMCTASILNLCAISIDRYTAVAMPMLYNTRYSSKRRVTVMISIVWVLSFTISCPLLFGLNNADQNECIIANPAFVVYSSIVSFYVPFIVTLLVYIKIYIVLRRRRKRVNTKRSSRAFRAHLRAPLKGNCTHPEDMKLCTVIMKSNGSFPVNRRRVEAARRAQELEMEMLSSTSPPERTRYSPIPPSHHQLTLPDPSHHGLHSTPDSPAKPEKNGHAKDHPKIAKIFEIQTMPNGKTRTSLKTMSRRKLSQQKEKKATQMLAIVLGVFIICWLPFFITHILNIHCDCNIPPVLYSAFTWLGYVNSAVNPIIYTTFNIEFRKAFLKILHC
The experiment in a line: GTPS scintillation proximity assay (GTPS-SPA), CHO_D2 membranes. In kind it is biochemical. The note with it: up to the highest concentration tested in the assay (3 μM). Here is the method: as §1, §2, §3, §4
With `Cc1cnc(F)c(-c2cn(CCCN3C[C@@H]4C[C@]4(c4ccc(C(F)(F)F)cc4)C3)c(=O)[nH]c2=O)c1.Cl.Cl` [Example E61, 5-(2-fluoro-5-methyl-3-pyridinyl)-1-(3-{(1S,5R)-1-[4-(trifluoromethyl)phenyl]-3-azabicyclo[3.1.0]hex-3-yl}propyl)-2,4(1H,3H)-pyrimidinedione dihydrochloride], the “activity in the D2 GTPS-SPA assay” value is reported as “no activity”.
For the compound `Cc1nc(F)ccc1-c1cn(CCCN2C[C@@H]3C[C@]3(c3ccc(C(F)(F)F)cc3)C2)c(=O)[nH]c1=O.Cl.Cl` [Example E36, 5-(6-fluoro-2-methyl-3-pyridinyl)-1-(3-{(1S,5R)-1-[4-(trifluoromethyl)phenyl]-3-azabicyclo[3.1.0]hex-3-yl}propyl)-2,4(1H,3H)-pyrimidinedione dihydrochloride], the “activity in the D2 GTPS-SPA assay” value is “no activity”.
On the same count and under the same terms, the result for `Cl.Cl.O=c1[nH]c(=O)n(CCCN2C[C@@H]3C[C@]3(c3ccc(C(F)(F)F)cc3)C2)cc1-c1ccncc1` [Example E24, 5-(4-pyridinyl)-1-(3-{(1S,5R)-1-[4-(trifluoromethyl)phenyl]-3-azabicyclo[3.1.0]hex-3-yl}propyl)-2,4(1H,3H)-pyrimidinedione dihydrocholoride] reads “no activity”; that for `Cc1ccncc1-c1cn(CCCN2C[C@@H]3C[C@]3(c3ccc(C(F)(F)F)cc3)C2)c(=O)[nH]c1=O.Cl.Cl` [Example E64, 5-(4-methyl-3-pyridinyl)-1-(3-{(1S,5R)-1-[4-(trifluoromethyl)phenyl]-3-azabicyclo[3.1.0]hex-3-yl}propyl)-2,4(1H,3H)-pyrimidinedione dihydrochloride], “no activity”.
On the same count and under the same terms, the result for `O=c1[nH]c(=O)n(CCCN2CC3CC3(c3ccc(Cl)cc3)C2)cc1-c1cccnc1F` [Example E50, 1-{3-[(1S,5R/1R,5S)-1-(4-chlorophenyl)-3-azabicyclo[3.1.0]hex-3-yl]propyl}-5-(2-fluoro-3-pyridinyl)-2,4(1H,3H)-pyrimidinedione] reads “no activity”; that for `Cc1cccc(-c2cn(CCCCN3C[C@@H]4C[C@]4(c4ccc(C(F)(F)F)cc4)C3)c(=O)[nH]c2=O)n1.Cl.Cl` [Example E32, 5-(6-methyl-2-pyridinyl)-1-(4-{(1S,5R)-1-[4-(trifluoromethyl)phenyl]-3-azabicyclo[3.1.0]hex-3-yl}butyl)-2,4(1H,3H)-pyrimidinedione dihydrochloride], “no activity”.
The same measure, in the same setting: to `Cc1nc(C)c(-c2cn(CCCN3C[C@@H]4C[C@]4(c4ccc(C(F)(F)F)cc4)C3)c(=O)[nH]c2=O)o1.Cl` [Example E41, 5-(2,4-dimethyl-1,3-oxazol-5-yl)-1-(3-{(1S,5R)-1-[4-(trifluoromethyl)phenyl]-3-azabicyclo[3.1.0]hex-3-yl}propyl)-2,4(1H,3H)-pyrimidinedione hydrochloride] belongs “no activity”; to `Cc1nc(C)c(-c2cn(CCCCN3C[C@@H]4C[C@]4(c4ccc(C(F)(F)F)cc4)C3)c(=O)[nH]c2=O)o1.Cl` [Example E42, 5-(2,4-dimethyl-1,3-oxazol-5-yl)-1-(4-{(1S,5R)-1-[4-(trifluoromethyl)phenyl]-3-azabicyclo[3.1.0]hex-3-yl}butyl)-2,4(1H,3H)-pyrimidinedione hydrochloride], “no activity”; to `Cl.O=c1[nH]c(=O)n(CCCN2C[C@@H]3C[C@]3(c3ccc(C(F)(F)F)cc3)C2)cc1C(F)(F)F` [Example E13, 5-(trifluoromethyl)-1-(3-{(1S,5R)-1-[4-(trifluoromethyl)phenyl]-3-azabicyclo[3.1.0]hex-3-yl}propyl)-2,4(1H,3H)-pyrimidinedione hydrochloride], “no activity”.
As for `Cl.N#Cc1cn(CCCN2C[C@@H]3C[C@]3(c3ccc(C(F)(F)F)cc3)C2)c(=O)[nH]c1=O` [Example E17, 2,4-dioxo-1-(3-{(1S,5R)-1-[4-(trifluoromethyl)phenyl]-3-azabicyclo[3.1.0]hex-3-yl}propyl)-1,2,3,4-tetrahydro-5-pyrimidinecarbonitrile hydrochloride], the “activity in the D2 GTPS-SPA assay” value is listed as “no activity”.
On the same count and under the same terms, the result for `O=c1[nH]c(=O)n(CCCN2C[C@@H]3C[C@]3(c3ccc(C(F)(F)F)cc3)C2)cc1-c1ccc(Cl)nc1` [Example E59, 5-(6-chloro-3-pyridinyl)-1-(3-{(1S,5R)-1-[4-(trifluoromethyl)phenyl]-3-azabicyclo[3.1.0]hex-3-yl}propyl)-2,4(1H,3H)-pyrimidinedione dihydrochloride] reads “no activity”; that for `Cc1cc(Cl)ccc1-c1cn(CCCN2C[C@@H]3C[C@]3(c3ccc(C(F)(F)F)cc3)C2)c(=O)[nH]c1=O` [Example E53, 5-(4-chloro-2-methylphenyl)-1-(3-{(1S,5R)-1-[4-(trifluoromethyl)phenyl]-3-azabicyclo[3.1.0]hex-3-yl}propyl)-2,4(1H,3H)-pyrimidinedione], “no activity”; that for `Cl.Cl.O=c1[nH]c(=O)n(CCCN2C[C@@H]3C[C@]3(c3ccc(C(F)(F)F)cc3)C2)cc1-c1cccnc1F` [Example E25, 5-(2-fluoro-3-pyridinyl)-1-(3-{(1S,5R)-1-[4-(trifluoromethyl)phenyl]-3-azabicyclo[3.1.0]hex-3-yl}propyl)-2,4(1H,3H)-pyrimidinedione dihydrochloride], “no activity”.
Still for that read-out and setting: the result for `Cl.Cl.O=c1[nH]c(=O)n(CCCN2C[C@@H]3C[C@]3(c3ccc(C(F)(F)F)cc3)C2)cc1-c1ccc(F)nc1` [Example E20, 5-(6-fluoro-3-pyridinyl)-1-(3-{(1S,5R)-1-[4-(trifluoromethyl)phenyl]-3-azabicyclo[3.1.0]hex-3-yl}propyl)-2,4(1H,3H)-pyrimidinedione dihydrochloride] reads “no activity”.
